pIC50: −log10 of the molar value. Converted amounts (≈) assume the structure as drawn.
Assays:
p38 MAP-kinase = p38 MAP-kinase (Homo sapiens, UniProt Q16539); assay: p38 MAP-kinase enzymatic assay (phosphorylation of GST-tagged ATF2, chemoluminescence); assay type: biochemical; details: inhibitor concentration 1 μM; activated p38 MAP-kinase 1 nM; ATP 100 μM; read-out: p38 (% Inh @ 1 μM)
Experimental: In this, the amount of a substrate phosphorylated by the kinase is quantified. The test is carried out as follows:
The kinase reaction is carried out in the presence of HEPES (20 mM, pH 7), MgCl2 (10 mM), DTT (1 mM) and TWEEN20 (0.01%). First, dimethylsulphoxide or inhibitor (final concentration: 1 μM) dissolved in dimethylsulphoxide are placed in a reaction vessel. Then the activated p38 MAP-kinase (final concentration 1 nM) is added and the mixture is incubated for 4 h at ambient temperature. Then a mixture of substrate (GST-tagged ATF2) and ATP is added and everything is incubated together for a further hour (final concentration ATP: 100 μM; final concentration ATF2: 10 nM).
The concentration of phosphorylated ATF2 is quantified by chemoluminescence-induced light emission. For this, a glutathione donor bead (final concentration: 5 μg/ml) which binds to the gluthathione on the ATF2 and phospho-ATF2 antibodies are added to the reaction mixture (final concentration: 3 nM; this binds the phosphate group added by the kinase reaction) to which a Protein A Acceptor Bead (final concentration: 5 μg/ml) binds. These components are dissolved in a buffer which contains 20 mM HEPES pH 7.0, 200 mM NaCL, 80 mM EDTA as well as 0.3% BSA. This reaction mixture is incubated in the dark for 1 hour at ambient temperature. When these beads come physically close, visible light is emitted which is measured in a photometer at 520-620 nm.
To determine the inhibitory activity of the compounds according to the invention a calculation is made to determine the percentage by which the kinase activity is inhibited at a fixed inhibitor concentration of 1 μM. The maximum activity is determined by non-inhibited kinase. The minimum activity or nonspecific background activity is determined using a reaction mixture without kinase.
Table 2 summarises the degree of inhibition of the enzyme p38 MAP-kinase—as described hereinbefore—mediated by the compounds according to the invention detailed in the section “Preparation of the final compounds”.

cytochrome P450 2C9 = cytochrome P450 2C9 (Homo sapiens, UniProt P11712); assay: Determining the cyp2C9 activity (O-demethylation of [O-methyl-14C]-naproxen); assay type: in vitro ADME; details: human recombinant cytochrome P450 2C9; 37° C.; <0.4 μM when inhibition >50% at lowest concentration; read-out: CYP 2C9 IC50
Experimental: Determining the cyp2C9 Activity:
The assay is carried out in a robot system with 96-well plates. The final incubation volume is 200 μl of TRIS-Puffer (0.1 M), magnesium chloride (5 mM), recombinant protein (40 pmol/ml), ^14C-labelled naproxen (80 μM) and the test compound in one of 4 concentrations (50 μM, 10 μM, 2 μM and 0.4 μM) as a duplicate in each case. After a short preincubation period the reactions are started by the addition of the cofactor (NADPH, 1 mM) and ended after 15 min by the addition of 50 μl of a 10% aqueous trichloroacetic acid solution. One aliquot of the incubate is transferred onto a 96-well solid phase extraction plate and extracted. The ^14C-formaldehyde formed during the reaction is not retained on the solid phase extraction plate and is thus separated from the unmetabolised substrate by washing the solid phase extraction plate with water. One aliquot of the eluate is transferred into a well plate suitable for liquid scintillation. […] The IC50 is determined by the least squares method using the following formula: control activity=(100% control activity/(1+(I/IC50)S))−B where I=Inhibitor concentration S=Pitch B=Background activity
When the inhibition of the reaction is >50% even at the lowest concentration of the test compound, the IC50 is given as <0.4 μM.

[1] = Determining the solubility (saturated solution in McIlvaine buffer pH 7.4, UV spectroscopy); assay type: physicochemical; details: pH 7.4, aqueous buffer, thermodynamic from solid, shaken 2 hours, 0.75 mg solid in 0.75 ml
Experimental: Determining the Solubility:
Saturated solutions are prepared in suitable well dishes by adding 0.75 ml of a McIlvaine buffer (pH 7.4) to the well in question containing 0.75 mg of solid of an active substance. The wells are shaken for 2 hours and then filtration is carried out through a suitable filter membrane (typically polytetrafluoroethylene with a pore size of 0.45 μm). Filter absorption is prevented by discarding the first few drops of filtrate. The amount of active substance dissolved is determined by UV spectroscopy.

p38 MAP-kinase, sequence (Q16539 whole entry): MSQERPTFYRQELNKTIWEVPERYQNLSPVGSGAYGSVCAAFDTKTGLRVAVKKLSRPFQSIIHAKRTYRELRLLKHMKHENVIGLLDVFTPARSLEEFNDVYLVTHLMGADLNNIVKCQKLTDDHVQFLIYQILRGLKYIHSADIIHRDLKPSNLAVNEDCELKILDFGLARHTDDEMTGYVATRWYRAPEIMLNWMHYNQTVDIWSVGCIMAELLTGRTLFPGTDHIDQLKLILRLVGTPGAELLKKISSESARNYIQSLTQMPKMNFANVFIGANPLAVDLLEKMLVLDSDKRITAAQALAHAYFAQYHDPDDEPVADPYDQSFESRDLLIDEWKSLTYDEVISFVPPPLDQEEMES
cytochrome P450 2C9, sequence (P11712 whole entry): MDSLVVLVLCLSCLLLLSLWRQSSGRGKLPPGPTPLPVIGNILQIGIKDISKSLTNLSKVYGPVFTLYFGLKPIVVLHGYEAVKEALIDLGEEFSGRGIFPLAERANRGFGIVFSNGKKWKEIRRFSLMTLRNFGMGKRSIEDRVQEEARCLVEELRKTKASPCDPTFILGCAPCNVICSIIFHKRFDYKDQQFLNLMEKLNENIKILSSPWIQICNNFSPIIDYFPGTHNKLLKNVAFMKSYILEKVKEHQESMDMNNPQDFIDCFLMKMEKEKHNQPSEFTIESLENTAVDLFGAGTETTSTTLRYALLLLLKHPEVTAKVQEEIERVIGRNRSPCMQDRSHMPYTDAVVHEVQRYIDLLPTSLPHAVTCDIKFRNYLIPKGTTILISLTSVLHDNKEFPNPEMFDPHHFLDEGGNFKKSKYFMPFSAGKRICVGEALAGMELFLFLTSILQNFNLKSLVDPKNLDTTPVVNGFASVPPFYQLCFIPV

Row | Compound | inhibition at 1 µM (p38 MAP-kinase) [%] | pIC50 (cytochrome P450 2C9) | solubility at 2 h [1] [µg/mL]
1 | COc1c(NC(=O)c2cc3cccc(CN4CCN(C(=O)CN5CC[C@@H](N(C)C)C5)CC4)c3n2C)cc(C(C)(C)C)cc1NS(C)(=O)=O [6(2), (R)-7-{4-[2-(3-dimethylamino-pyrrolidin-1-yl)-acetyl]-piperazin-1-ylmethyl}-1-methyl-1H-indole-2-carboxylic acid-(5-tert-butyl-3-methanesulphonylamino-2-methoxy-phenyl)-amide] | 98.9 | 6.15 | > 1000
2 | COc1c(NC(=O)c2cc3cccc(CN4CCN(C(=O)CN5CC[C@H](N(C)C)C5)CC4)c3n2C)cc(C(C)(C)C)cc1NS(C)(=O)=O [6(3), (S)-7-{4-[2-(3-dimethylamino-pyrrolidin-1-yl)-acetyl]-piperazin-1-ylmethyl}-1-methyl-1H-indole-2-carboxylic acid-(5-tert-butyl-3-methanesulphonylamino-2-methoxy-phenyl)-amide] | 98.5 | 5.53 | 910 (≈ 1330 µM)
3 | COc1c(NC(=O)c2cc3cccc(CN4CCCN(C(=O)C5CCN(C)CC5)CC4)c3n2C)cc(C(C)(C)C)cc1NS(C)(=O)=O [8(1), 1-methyl-7-[4-(1-methyl-piperidine-4-carbonyl)-[1,4]diazepan-1-ylmethyl]-1H-indole-2-carboxylic acid-(5-tert-butyl-3-methanesulphonylamino-2-methoxy-phenyl)-amide] | 98.1 | 5.19 | 120 (≈ 180 µM)
4 | COc1c(NC(=O)c2cc3cccc(CN4CCN(C(=O)[C@@H]5CCCN5C)CC4)c3n2C)cc(CC(C)C)cc1NS(C)(=O)=O [8(2), (S)-1-methyl-7-[4-(1-methyl-pyrrolidine-2-carbonyl)-piperazin-1-ylmethyl]-1H-indole-2-carboxylic acid-(5-isobutyl-3-methanesulphonylamino-2-methoxy-phenyl)-amide] | 99.5 | 5.24 | 120 (≈ 188 µM)
5 | COc1c(CN(C(C)C)C(C)C)cc(C(C)(C)C)cc1NC(=O)c1cc2cccc(CN3CCN(C(=O)[C@@H]4CCCN4C)CC3)c2n1C [9(1), (S)-1-methyl-7-[4-(1-methyl-pyrrolidine-2-carbonyl)-piperazin-1-ylmethyl]-1H-indole-2-carboxylic acid-{5-tert-butyl-3-[(diisopropylamino)-methyl]-2-methoxy-phenyl}-amide] | 95.8 | 5.17 | 570 (≈ 865 µM)
6 | CCN(CC)Cc1cc(C(C)(C)C)cc(NC(=O)c2cc3cccc(CN4CCN(C(=O)[C@@H]5CCCN5C)CC4)c3n2C)c1OC [9(2), (S)-1-methyl-7-[4-(1-methyl-pyrrolidine-2-carbonyl)-piperazin-1-ylmethyl]-1H-indole-2-carboxylic acid-(5-tert-butyl-3-diethylaminomethyl-2-methoxy-phenyl)-amide] | 98.2 | 5.11 | 860 (≈ 1360 µM)
7 | COc1c(CN2CCCC(N(C)C)C2)cc(C(C)(C)C)cc1NC(=O)c1cc2cccc(CN3CCN(C(=O)[C@@H]4CCCN4C)CC3)c2n1C (stereo partly drawn) [9(3), 1-methyl-7-[4-((2S)-1-methyl-pyrrolidine-2-carbonyl)-piperazin-1-ylmethyl]-1H-indole-2-carboxylic acid-[5-tert-butyl-3-(3-dimethylamino-piperidin-1-ylmethyl)-2-methoxy-phenyl]-amide] | 98.9 | 5.16 | 700 (≈ 1020 µM)
8 | CCN(CC)C1CCN(Cc2cc(C(C)(C)C)cc(NC(=O)c3cc4cccc(CN5CCN(C(=O)[C@@H]6CCCN6C)CC5)c4n3C)c2OC)C1 (stereo partly drawn) [9(4), 1-methyl-7-[4-((2S)-1-methyl-pyrrolidine-2-carbonyl)-piperazin-1-ylmethyl]-1H-indole-2-carboxylic acid-[5-tert-butyl-3-(3-diethylamino-pyrrolidin-1-ylmethyl)-2-methoxy-phenyl]-amide] | 98 | 5.09 | 690 (≈ 986 µM)
9 | COc1c(CN2CCC(N(C)C)CC2)cc(C(C)(C)C)cc1NC(=O)c1cc2cccc(CN3CCN(C(=O)[C@@H]4CCCN4C)CC3)c2n1C [9(5), (S)-1-methyl-7-[4-(1-methyl-pyrrolidine-2-carbonyl)-piperazin-1-ylmethyl]-1H-indole-2-carboxylic acid-[5-tert-butyl-3-(4-dimethylamino-piperidin-1-ylmethyl)-2-methoxy-phenyl]-amide] | 97.5 | 5.16 | 490 (≈ 714 µM)
10 | CCN(CC)C1CCN(Cc2cc(C(C)(C)C)cc(NC(=O)c3cc4cccc(CN5CCN(C(=O)[C@@H]6CCCN6C)CC5)c4n3C)c2OC)CC1 [9(6), (S)-1-methyl-7-[4-(1-methyl-pyrrolidine-2-carbonyl)-piperazin-1-ylmethyl]-1H-indole-2-carboxylic acid-[5-tert-butyl-3-(4-diethylamino-piperidin-1-ylmethyl)-2-methoxy-phenyl]-amide] | 97.7 | 4.98 | 470 (≈ 658 µM)
11 | COc1c(CN2CCN(C(C)C)CC2)cc(C(C)(C)C)cc1NC(=O)c1cc2cccc(CN3CCN(C(=O)[C@@H]4CCCN4C)CC3)c2n1C [9(7), (S)-1-methyl-7-[4-(1-methyl-pyrrolidine-2-carbonyl)-piperazin-1-ylmethyl]-1H-indole-2-carboxylic acid-[5-tert-butyl-3-(4-isopropyl-piperazin-1-ylmethyl)-2-methoxy-phenyl]-amide] | 98.8 | 4.35 | 880 (≈ 1280 µM)
12 | COc1c(NC(=O)c2cc3cccc(CN4CCN(C(=O)[C@@H]5CCCN5C)CC4)c3n2C)cc(C(C)(C)C)cc1C(=O)NC(C)C [10(1), (S)-1-methyl-7-[4-(1-methyl-pyrrolidine-2-carbonyl)-piperazin-1-ylmethyl]-1H-indole-2-carboxylic acid-(5-tert-butyl-3-isopropylcarbamoyl-2-methoxy-phenyl)-amide] | 99.1 | 5.89 | 380 (≈ 602 µM)
13 | CCNC(=O)c1cc(C(C)(C)C)cc(NC(=O)c2cc3cccc(CN4CCN(C(=O)[C@@H]5CCCN5C)CC4)c3n2C)c1OC [10(2), (S)-1-methyl-7-[4-(1-methyl-pyrrolidine-2-carbonyl)-piperazin-1-ylmethyl]-1H-indole-2-carboxylic acid-(5-tert-butyl-3-ethylcarbamoyl-2-methoxy-phenyl)-amide] | 99.4 | 6.34 | 390 (≈ 632 µM)
14 | CNC(=O)c1cc(C(C)(C)C)cc(NC(=O)c2cc3cccc(CN4CCN(C(=O)[C@@H]5CCCN5C)CC4)c3n2C)c1OC [10(3), (S)-1-methyl-7-[4-(1-methyl-pyrrolidine-2-carbonyl)-piperazin-1-ylmethyl]-1H-indole-2-carboxylic acid-(5-tert-butyl-2-methoxy-3-methylcarbamoyl-phenyl)-amide] | 99.3 | 5.80 | 590 (≈ 979 µM)
15 | COc1c(NC(=O)c2cc3cccc(CN4CCN(C(=O)[C@@H]5CCCN5C)CC4)c3n2C)cc(C(C)(C)C)cc1C(N)=O [10(4), (S)-1-methyl-7-[4-(1-methyl-pyrrolidine-2-carbonyl)-piperazin-1-ylmethyl]-1H-indole-2-carboxylic acid-(5-tert-butyl-3-carbamoyl-2-methoxy-phenyl)-amide] | 99.1 | 6.36 | 370 (≈ 628 µM)

From patent US8686022B2, “7-(piperazine-1-ymethyl)-1H-indole-2-carboxylic acid (phenyl)-amide derivatives and allied compounds as p38 MAP kinase inhibitors for the treatment of respiratory diseases” (Boehringer Ingelheim International GmbH, priority 2008, dated 2014)
